Molecules are shown by their SMILES.

For the first experiment, the target named is T1, Human NPY Y1 receptors (Homo sapiens, UniProt P25929).
T1 construct: expressed in transfected cells; host or cells: CHO cells (membrane protein)
T1 sequence (P25929 1-384): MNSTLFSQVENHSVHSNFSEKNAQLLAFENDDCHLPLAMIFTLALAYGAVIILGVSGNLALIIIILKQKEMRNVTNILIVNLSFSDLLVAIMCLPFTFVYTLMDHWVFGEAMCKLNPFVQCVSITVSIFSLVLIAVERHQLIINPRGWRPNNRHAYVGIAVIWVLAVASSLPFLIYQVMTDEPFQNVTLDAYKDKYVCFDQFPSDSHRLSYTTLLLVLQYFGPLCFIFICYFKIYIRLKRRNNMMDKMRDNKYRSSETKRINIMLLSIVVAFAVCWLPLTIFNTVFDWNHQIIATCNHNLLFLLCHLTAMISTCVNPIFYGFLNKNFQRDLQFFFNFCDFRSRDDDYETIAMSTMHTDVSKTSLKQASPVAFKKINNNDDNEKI
The experiment in a line: NPY Receptor Binding Assay.
Details: not given
Broadly, the Ki is the dissociation constant of the complex between target and ligand, obtained from inhibition or displacement. Read a high Ki as weaker binding. For `CC(C)C[C@@H]1N/C(=N\c2ccccc2CCNc2nc3ccccc3s2)SC1=O` [Example 411], the inhibition constant (Ki) is greater than 10 µM. Same read-out and setting: in the case of `O=C(O)C[C@@H]1N/C(=N\c2ccccc2CCNc2nc3ccccc3s2)SC1=O` [Example 413] it was greater than 10 µM; in that of `COc1cccc2sc(NCCc3ccc(/N=C4\SC(=O)[C@@H]5CCCN45)cc3)nc12` [Example 366], greater than 10 µM; in that of `CC(C)C[C@@H]1N/C(=N/c2ccc(CCNc3nc4ccc(S(C)(=O)=O)cc4s3)cc2)SC1=O` [Example 389], greater than 10 µM. Same read-out and setting: in the case of `CS(=O)(=O)c1ccc2nc(NCCc3ccc(/N=C4/N[C@@H](CC(=O)O)C(=O)S4)cc3)sc2c1` [Example 353] it was greater than 10 µM; in that of `O=C1S/C(=N\c2ccc(CCNc3nc4ccc([N+](=O)[O-])cc4s3)cc2)N[C@H]1Cc1ccccc1` [Example 355], greater than 10 µM; in that of `O=C1S/C(=N\c2ccc(CCNc3nc4cc(Cl)c(Cl)cc4s3)cc2)N2CCC[C@@H]12` [Example 390], greater than 10 µM. The compound `CSCC[C@@H]1N/C(=N/c2ccc(CCNc3nc4cc(Cl)c(Cl)cc4s3)cc2)SC1=O` [Example 361] showed a Ki greater than 10 µM. The same measure, in the same setting: for `CSCC[C@@H]1N/C(=N/c2ccc(CCNc3nc4ccc(C)cc4s3)cc2)SC1=O` [Example 357] the value was 1 to 10 µM. On the same count and under the same terms, for `CS(=O)(=O)c1ccc2nc(NCCc3ccc(/N=C4/N[C@@H](Cc5ccccc5)C(=O)S4)cc3)sc2c1` [Example 387] the value was greater than 10 µM. Still for that read-out and setting: for `CSCC[C@@H]1N/C(=N/c2ccc(CCNc3nc4ccccc4s3)cc2)SC1=O` [Example 395] the value was greater than 10 µM; for `C[C@@H]1N/C(=N/c2ccc(CCNc3nc4ccc([N+](=O)[O-])cc4s3)cc2)SC1=O` [Example 343], greater than 10 µM.

As for `Cc1cccc2sc(NCCc3ccc(/N=C4/N[C@@H](CC(C)C)C(=O)S4)cc3)nc12` [Example 370], the Ki was greater than 10 µM. Still for that read-out and setting: for `O=C(O)C[C@@H]1N/C(=N/c2ccc(CCNc3nc4ccccc4s3)cc2)SC1=O` [Example 399] the value was greater than 10 µM. Same read-out and setting: in the case of `Cc1ccc2nc(NCCc3ccc(/N=C4/N[C@@H](C)C(=O)S4)cc3)sc2c1` [Example 381] it was greater than 10 µM; in that of `O=C1S/C(=N\c2ccc(CCNc3nc4ccc(F)cc4s3)cc2)N2CCC[C@@H]12` [Example 375], greater than 10 µM; in that of `CC(C)[C@@H]1N/C(=N/c2ccc(CCNc3nc4cc(Cl)c(Cl)cc4s3)cc2)SC1=O` [Example 363], greater than 10 µM. Still for that read-out and setting: for `COc1ccc2nc(NCCc3ccc(/N=C4/N[C@@H](Cc5ccccc5)C(=O)S4)cc3)sc2c1` [Example 344] the value was greater than 10 µM. Regarding `O=C(O)C[C@@H]1N/C(=N\c2cccc(CCNc3nc4ccccc4s3)c2)SC1=O` [Example 409], the Ki is greater than 10 µM.

The compound `C[C@@H]1N/C(=N/c2ccc(CCNc3nc4ccccc4s3)cc2)SC1=O` [Example 400] displayed a Ki greater than 10 µM. Same read-out and setting: in the case of `O=C(O)C[C@@H]1N/C(=N/c2ccc(CCNc3nc4ccc(F)cc4s3)cc2)SC1=O` [Example 402] it was greater than 10 µM. `C[C@@H]1N/C(=N/c2ccc(CCNc3nc4cc(Cl)c(Cl)cc4s3)cc2)SC1=O` [Example 393]: the inhibitory constant (Ki) was greater than 10 µM.

Staying with this experiment, now noted: Procedure A compounds, rated A/B/C.
For the compound `O=[N+]([O-])c1ccc2nc(NCCc3ccc(NC4=NCCS4)cc3)sc2c1` [Example 18], the Ki is 1 to 10 µM. Regarding `Clc1cc2nc(NCCc3ccc(NC4=NCCS4)cc3)sc2cc1Cl` [Example 20], the Ki fell in the range of 1 to 10 µM. The same measure, in the same setting: in the case of `Clc1ccc2nc(NCCc3ccc(NC4=NCCS4)cc3)sc2c1` [Example 19] it was 1 to 10 µM.

Still in this experiment, the particulars now being: Procedure B compounds, rated A/B/C.
`CC1N=C(Nc2ccc(CCNc3nc4ccccc4s3)cc2)N(C(=O)c2ccccc2)C1c1ccccc1` (stereo not shown) [Example 31] showed an inhibition constant (Ki) greater than 10 µM. On the same count and under the same terms, in the case of `O=C(c1ccccc1)N1CC2CCCN2/C1=N\c1ccc(CCNc2nc3ccccc3s2)cc1` (stereo not shown) [Example 35] it was greater than 10 µM.

`CCOC(=O)N1CC2(CCCC2)N=C1Nc1ccc(CCNc2nc3ccccc3s2)cc1` [Example 29] had an inhibition constant Ki greater than 10 µM. On the same count and under the same terms, in the case of `O=C(c1ccccc1)N1CC(c2ccccc2)N=C1Nc1ccc(CCNc2nc3ccccc3s2)cc1` (stereo not shown) [Example 30] it was greater than 10 µM; in that of `CCOC(=O)N1CC2CCCN2/C1=N\c1ccc(CCNc2nc3ccccc3s2)cc1` (stereo not shown) [Example 34], greater than 10 µM.

The same experiment, now with this note: Procedure C compounds, rated A/B/C.
`CSCC[C@@H]1N=C(Nc2ccc(CCNc3nc4ccccc4s3)cc2)N(C(=O)c2ccccc2)C1=O` [Example 54] showed a Ki greater than 10 µM.

Compound `CCOC(=O)N1C(=O)[C@H](CCC(=O)O)N=C1Nc1ccc(CCNc2nc3ccccc3s2)cc1` [Example 40] came in with a Ki greater than 10 µM.

Staying with this experiment, now noted: Procedure D compound, rated A/B/C.
Consider `COC1CN=C(Nc2ccc(CCNc3nc4ccccc4s3)cc2)S1` (stereo not shown) [compound 61], for which the Ki was 1 to 10 µM.

The experiment is the same for the next values; noted with them: Procedure E compounds, rated A/B/C.
Regarding `COc1ccc2nc(NCCc3ccc(/N=C4/N[C@H](C)CS4)cc3)sc2c1` [Example 218], the inhibitory constant (Ki) fell in the range of 1 to 10 µM. Consider `CCC1CS/C(=N\c2ccc(CCNc3nc4ccc(Cl)cc4s3)cc2)N1` (stereo not shown) [Example 103], for which the Ki fell in the range of 1 to 10 µM. On the same count and under the same terms, for `COc1ccc2nc(NCCc3ccc(/N=C4\SC5Cc6ccccc6[C@@H]5N4C)cc3)sc2c1` (stereo partly shown) [Example 77] the value was greater than 10 µM. Still for that read-out and setting: in the case of `c1ccc([C@@H]2CSC(Nc3ccc(CCNc4nc5ccccc5s4)cc3)=N2)cc1` [Example 196] it was less than 1 µM. In the case of `COc1ccc2nc(NCCc3ccc(/N=C4/NC(c5ccccc5)CCS4)cc3)sc2c1` (stereo not shown) [Example 203], the Ki is less than 1 µM. Still for that read-out and setting: for `Cc1ccc2nc(NCCc3ccc(/N=C4/N[C@@H](Cc5c[nH]cn5)CS4)cc3)sc2c1` [Example 97] the value was 1 to 10 µM; for `c1ccc2sc(NCCc3ccc(N=C4NCCCS4)cc3)nc2c1` [Example 202], less than 1 µM; for `c1ccc(C2CN/C(=N/c3ccc(CCNc4nc5ccccc5s4)cc3)S2)cc1` (stereo not shown) [Example 192], greater than 10 µM. The compound `Cc1ccc2nc(NCCc3ccc(/N=C4\SC5CCC[C@H]5N4C)cc3)sc2c1` (stereo partly shown) [Example 223] had a Ki greater than 10 µM. The same measure, in the same setting: for `CS(=O)(=O)c1ccc2nc(NCCc3ccc(NC4=NCCCS4)cc3)sc2c1` [Example 65] the value was 1 to 10 µM; for `Fc1ccc2nc(NCCc3ccc(/N=C4/NC(c5ccccc5)CCS4)cc3)sc2c1` (stereo not shown) [Example 210], less than 1 µM. Same read-out and setting: for `COc1ccc2nc(NCCc3ccc(/N=C4\SC5CCC[C@H]5N4C)cc3)sc2c1` (stereo partly shown) [Example 78] the value was greater than 10 µM; for `COc1cccc2sc(NCCc3ccc(/N=C4\SC5Cc6ccccc6[C@@H]5N4C)cc3)nc12` (stereo partly shown) [Example 228], greater than 10 µM.

As to `COc1ccc2nc(NCCc3ccc(/N=C4/NCC(c5ccccc5)S4)cc3)sc2c1` (stereo not shown) [Example 85], the inhibitory constant (Ki) is greater than 10 µM. Still for that read-out and setting: for `CC(C)C[C@@H]1CS/C(=N\c2ccc(CCNc3nc4ccccc4s3)cc2)N1` [Example 134] the value was less than 1 µM. Compound `CC(C)C[C@@H]1CS/C(=N\c2ccc(CCNc3nc4ccc(F)cc4s3)cc2)N1` [Example 297] came in with a Ki of less than 1 µM.

The compound `CCC1CS/C(=N\c2ccc(CCNc3nc4ccccc4s3)cc2)N1` (stereo not shown) [Example 263] returned an inhibitory constant (Ki) of less than 1 µM.

`c1ccc2sc(NCCc3ccc(/N=C4/NC5(CCCC5)CS4)cc3)nc2c1` [Example 271] displayed a Ki of less than 1 µM. Same read-out and setting: in the case of `Cc1ccc2nc(NCCc3ccc(/N=C4/NCC(C)S4)cc3)sc2c1` (stereo not shown) [Example 324] it was greater than 10 µM; in that of `Clc1ccc2nc(NCCc3ccc(/N=C4/NC5(CCCC5)CS4)cc3)sc2c1` [Example 239], 1 to 10 µM; in that of `CCCCC1CS/C(=N\c2ccc(CCNc3nc4ccc(Cl)cc4s3)cc2)N1` (stereo not shown) [Example 106], 1 to 10 µM. The same measure, in the same setting: for `Clc1ccc2nc(NCCc3ccc(NC4=NCCCS4)cc3)sc2c1` [Example 213] the value was less than 1 µM. For the compound `CC[C@@H]1CS/C(=N\c2ccc(CCNc3nc4ccc(C)cc4s3)cc2)N1` [Example 96], the Ki is less than 1 µM.

Compound `CC1CCSC(Nc2ccc(CCNc3nc4ccccc4s3)cc2)=N1` (stereo not shown) [Example 200] showed a Ki of less than 1 µM. Regarding `Clc1cc2nc(NCCc3ccc(/N=C4/NC(c5ccccc5)CCS4)cc3)sc2cc1Cl` (stereo not shown) [Example 66], the Ki is greater than 10 µM.

`COc1ccc2nc(NCCc3ccc(/N=C4\SC[C@@H]5CCCN45)cc3)sc2c1` [Example 83] had an inhibitory constant (Ki) greater than 10 µM. On to `COc1ccc2nc(NCCc3ccc(/N=C4/NCC(C)S4)cc3)sc2c1` (stereo not shown) [Example 322], for which the Ki was greater than 10 µM. The same measure, in the same setting: in the case of `Clc1ccc(C2CCSC(Nc3ccc(CCNc4nc5ccccc5s4)cc3)=N2)cc1` (stereo not shown) [Example 337] it was less than 1 µM; in that of `COc1ccc2nc(NCCc3ccc(/N=C4/N[C@@H](c5ccccc5)CS4)cc3)sc2c1` [Example 217], greater than 10 µM. The same measure, in the same setting: in the case of `Cc1ccc2nc(NCCc3ccc(/N=C4/NC(c5ccccc5)CCS4)cc3)sc2c1` (stereo not shown) [Example 204] it was less than 1 µM.

As for `COc1ccc2nc(NCCc3ccc(/N=C4/NC(C)(C)CS4)cc3)sc2c1` [Example 221], the Ki fell in the range of 1 to 10 µM.

For the compound `Cc1ccc2nc(NCCc3ccc(/N=C4/N[C@H](CC(C)C)CS4)cc3)sc2c1` [Example 88], the Ki is less than 1 µM.

Still in this experiment, the particulars now being: Procedure G compounds, rated A/B/C.
Regarding `COc1ccccc1-c1csc(Nc2ccc(CCNc3nc4ccccc4s3)cc2)n1` [Example 425], the Ki is greater than 10 µM. Still for that read-out and setting: in the case of `CNC(=O)c1sc(Nc2ccc(CCNc3nc4ccccc4s3)cc2)nc1C` [Example 418] it was greater than 10 µM; in that of `COC(=O)Cc1csc(Nc2ccc(CCNc3nc4ccccc4s3)cc2)n1` [Example 431], greater than 10 µM.

Staying with this experiment, now noted: Table 1, rated A/B/C.
The compound `c1ccc(C2CCCC(Nc3ccc(CCNc4nc5ccccc5s4)cc3)=N2)cc1` (stereo not shown) [Example 6] returned a Ki of less than 1 µM. The same measure, in the same setting: for `Clc1cccc(C2CCSC(Nc3ccc(CCNc4nc5ccccc5s4)cc3)=N2)c1` (stereo not shown) [Example 4] the value was less than 1 µM.

Source of the values: patent US7459450B2, “Neuropeptide receptor modulators” (Schering Corporation, priority 2004, dated 2008).
